These results are taken from patent US20120046329A1, “MODULATORS OF NOD1 AND NOD2 SIGNALING, METHODS OF IDENTIFYING MODULATORS OF NOD1 AND NOD2 SIGNALING, AND USES THEREOF” (Sanford-Burnham Medical Research Institute, priority 2010, published 2012).

The target of data set [1] is NOD1 association with RIP2, Bid, or SGT-1 (Homo sapiens, UniProt Q9Y239). Briefly: Co-immunoprecipitation of NOD1 with interacting proteins, HEK 293T. The format is cell-based. To be noted: over-expressing conditions, 5 μM.
Data set [2] in a line: Plasma protein binding, human. Format: in vitro ADME. The following applies: for Plasma Protein Binding (% Bound): Human.
Data set [3] deals with noncanonical NF-κB activation induced by BAFF. The data set is described as follows: NF-κB luciferase in 697 pre-B leukemia cells, BAFF. The following applies: 697 cells, 10 μM.
Method: Luciferase activity was measured 24 h later (mean±SD; n=3).
Gene reporter assays: HEK293T or 697 cells containing integrated 5×NFκB-driven luciferase reporter gene were seeded into 96-well plates at 10^4 to 10^5 cells per well, and treated with respective inducers for 16 to 24 hours. […] The next day, cells were transfected with 50 ng pNF-κB-LUC (Clontech) and 5 ng Renilla luciferase gene driven by a constitutive TK promoter (pRL-TK; Promega) along with indicated plasmids. After 24 h of transfection in some experiments, cells were stimulated with various agents for 24 h or directly lysed and luciferase activities were assayed using the Dual Luciferase kit (Promega). The results for firefly luciferase activity were normalized to renilla luciferase activity. […] The mean results were obtained from triplicates.
Data set [4] can be described thus: Solubility in aqueous buffer.
Data set [5] concerns the target T1, NOD2 (Homo sapiens, UniProt Q9HC29). The data set is described as follows: MDP-induced IL-8 secretion in MCF-7/NOD2 cells. To be noted: MCF-7 cells, ELISA.
The test system of the next data set is TLR1, 2, 4, 5, 6 and 8. The data set is described as follows: NF-κB SEAP reporter in PMA-differentiated THP.1 macrophages, TLR agonists. The format is cell-based, human. The following applies: 5 μM, 24 h.
The test system of the next data set is inflammasome. Briefly: IL-1β secretion ELISA in RAW264.7 cells, inflammasome activators. The format is cell-based, mouse. The following applies: RAW264.7, 5 μM. From the text:
Supernatants were collected after either 2 hrs (Salmonella infection) or 4 hrs (all others) and IL-1β levels were quantified by ELISA (mean+SD; n=3).
Many NLRs form complexes with caspase-1, creating so-called “inflammasomes” responsible for proteolytic processing of inflammatory cytokine interleukin 1-beta (IL-1β). […] (FIGS. 1D and 1G), indicating a lack of promiscuity towards other NLRs.
ELISA: For IL-8 ELISA, MCF7 cells stably expressing His6-FLAG-tagged NOD1 or NOD2 were produced by lentivirus infection. Cells were cultured up to 90% confluency. Assays were initiated using 5,000 cells per well (in 100 μl volume) of a 96-well transparent culture plate. […] Supernatants were collected into a new 96-well plate and stored at −80° C. IL-8 levels were measured using a human IL-8 ELISA (BD OptEIA™ Human IL-8 ELISA Set, BD Biosciences). For IL-1β ELISA, assays were initiated using 50,000 RAW264.7 cells per well (in 100 μl of Opti-Mem medium, Invitrogen) of a 96-well transparent culture plate. Cell treatments were performed as indicated. IL-1β levels were measured using mouse IL-1 beta ELISA Ready-Set-Go!™ Kit (E-Biosciences).

In data set [6] the target is T1, NOD2. Briefly: Subcellular fractionation of MCF-7 cells expressing tagged NOD2. The following applies: MCF-7, 5 μM, 24 h.
Method: After 24 h treatment, cytosolic and membrane subcellular fractions were isolated and analyzed (10 μg protein) by immunoblotting using antibodies specific for α-tubulin (cytosolic marker), pan-cadherin (plasma membrane marker), NOD2 (using anti-FLAG antibodies) and RIP2.
For subcellular fractionation, cytosolic fractions were obtained by extensive resuspension of cell pellets into buffer A (10 mM Hepes 7.5, 1.5 mM MgCl2, 10 mM KCl, 0.5 mM DTT and protease inhibitors). […] Immunoblotting was performed using respective antibodies. Total lysates (50-60 μg) and subcellular fractions (10 μg) were also immunoblotted after protein quantification (Bio-Rad Protein Assay).
Data set [7] is described as follows: Microsomal stability, mouse. Format: in vitro ADME.
Data set [8] can be described thus: Plasma protein binding, mouse. Format: in vitro ADME. The following applies: for Plasma Protein Binding (% Bound): Mouse.

In brackets after ≈: the same amount, converted by molar mass.

T1 sequence (Q9HC29 whole entry): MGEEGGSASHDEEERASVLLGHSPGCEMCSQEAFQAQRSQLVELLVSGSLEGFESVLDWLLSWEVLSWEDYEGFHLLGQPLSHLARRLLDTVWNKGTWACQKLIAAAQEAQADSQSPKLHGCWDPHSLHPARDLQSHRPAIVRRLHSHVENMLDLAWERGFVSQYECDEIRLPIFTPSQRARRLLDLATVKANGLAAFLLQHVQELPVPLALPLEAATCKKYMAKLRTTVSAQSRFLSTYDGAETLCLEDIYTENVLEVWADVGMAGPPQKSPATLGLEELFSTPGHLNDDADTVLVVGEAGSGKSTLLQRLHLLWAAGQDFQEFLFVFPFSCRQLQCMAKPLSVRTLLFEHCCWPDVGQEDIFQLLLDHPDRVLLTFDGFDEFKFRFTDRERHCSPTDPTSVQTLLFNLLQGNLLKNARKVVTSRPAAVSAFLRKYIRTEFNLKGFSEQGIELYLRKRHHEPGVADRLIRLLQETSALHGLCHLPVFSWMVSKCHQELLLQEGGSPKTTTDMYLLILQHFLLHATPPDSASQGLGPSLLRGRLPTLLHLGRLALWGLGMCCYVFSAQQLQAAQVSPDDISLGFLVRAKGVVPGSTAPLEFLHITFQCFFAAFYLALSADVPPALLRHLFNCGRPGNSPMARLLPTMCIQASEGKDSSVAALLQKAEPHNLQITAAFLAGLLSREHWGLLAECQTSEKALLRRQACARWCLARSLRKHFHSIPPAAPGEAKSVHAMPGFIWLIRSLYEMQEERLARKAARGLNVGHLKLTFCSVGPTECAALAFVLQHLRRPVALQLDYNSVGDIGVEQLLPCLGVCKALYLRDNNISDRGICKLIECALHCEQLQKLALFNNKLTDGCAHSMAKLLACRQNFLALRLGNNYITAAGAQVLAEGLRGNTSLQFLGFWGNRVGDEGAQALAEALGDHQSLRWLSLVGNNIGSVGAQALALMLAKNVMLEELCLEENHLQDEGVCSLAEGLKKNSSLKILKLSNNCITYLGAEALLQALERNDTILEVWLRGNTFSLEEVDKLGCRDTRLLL
NOD1 association with RIP2, Bid, or SGT-1, sequence (Q9Y239 whole entry): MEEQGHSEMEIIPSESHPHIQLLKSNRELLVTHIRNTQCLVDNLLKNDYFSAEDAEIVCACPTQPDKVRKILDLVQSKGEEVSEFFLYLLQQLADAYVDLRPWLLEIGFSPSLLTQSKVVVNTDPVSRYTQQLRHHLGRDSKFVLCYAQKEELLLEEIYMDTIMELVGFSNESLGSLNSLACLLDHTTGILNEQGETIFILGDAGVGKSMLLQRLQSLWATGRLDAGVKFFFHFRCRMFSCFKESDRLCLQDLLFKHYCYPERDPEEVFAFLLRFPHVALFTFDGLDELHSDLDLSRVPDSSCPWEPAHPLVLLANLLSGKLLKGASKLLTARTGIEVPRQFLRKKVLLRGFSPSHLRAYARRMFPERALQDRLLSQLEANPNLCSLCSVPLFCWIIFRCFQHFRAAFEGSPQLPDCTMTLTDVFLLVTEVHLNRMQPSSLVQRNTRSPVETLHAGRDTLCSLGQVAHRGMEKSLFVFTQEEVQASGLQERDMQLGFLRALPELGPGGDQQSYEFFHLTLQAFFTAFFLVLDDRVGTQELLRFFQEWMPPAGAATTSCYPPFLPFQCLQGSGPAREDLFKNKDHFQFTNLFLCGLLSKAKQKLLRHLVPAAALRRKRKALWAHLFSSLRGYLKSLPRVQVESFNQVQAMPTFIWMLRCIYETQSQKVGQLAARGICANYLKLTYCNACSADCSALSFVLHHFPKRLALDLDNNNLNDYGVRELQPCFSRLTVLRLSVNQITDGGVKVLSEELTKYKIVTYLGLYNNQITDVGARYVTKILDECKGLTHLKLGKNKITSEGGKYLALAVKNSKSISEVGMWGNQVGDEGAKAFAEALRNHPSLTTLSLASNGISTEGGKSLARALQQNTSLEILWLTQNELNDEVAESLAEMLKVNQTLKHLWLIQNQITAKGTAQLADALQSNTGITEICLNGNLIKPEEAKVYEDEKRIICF
NOD1 association with RIP2, Bid, or SGT-1, sequence (O43353 whole entry partner): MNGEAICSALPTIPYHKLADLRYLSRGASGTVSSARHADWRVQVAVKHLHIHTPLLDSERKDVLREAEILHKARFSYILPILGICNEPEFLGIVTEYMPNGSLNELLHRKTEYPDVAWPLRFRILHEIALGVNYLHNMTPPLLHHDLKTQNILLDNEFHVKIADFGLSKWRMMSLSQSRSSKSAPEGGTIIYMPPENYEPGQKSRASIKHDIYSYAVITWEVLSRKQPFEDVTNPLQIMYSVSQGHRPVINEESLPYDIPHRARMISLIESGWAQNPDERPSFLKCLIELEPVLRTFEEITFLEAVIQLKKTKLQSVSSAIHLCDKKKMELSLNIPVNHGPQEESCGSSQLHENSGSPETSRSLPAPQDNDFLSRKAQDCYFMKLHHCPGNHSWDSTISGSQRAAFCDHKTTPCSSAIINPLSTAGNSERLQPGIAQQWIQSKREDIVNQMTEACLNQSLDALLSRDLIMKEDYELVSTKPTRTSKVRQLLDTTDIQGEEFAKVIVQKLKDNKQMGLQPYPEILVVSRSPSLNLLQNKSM
Method for TLR1, 2, 4, 5, 6 and 8: After 24 h incubation, SLAP activity in culture supernatants was measured, expressing data as percentage relative to treatment with inducer only (indicated as 100%; mean±SEM, n=2).
Human myelomonocytic THP-1 cells containing a NF-κB/AP-1-inducible reporter gene encoding secreted alkaline phosphatase (SEAP) were employed for convenient monitoring of NF-κB activity.
THP.1-Blue™ monocytic cells (Invivogen), stably containing NF-κB-driven secreted alkaline phosphatase reporter (SEAP), were plated and further treated as indicated. Stimulation was accessed colorimetrically measuring SEAP secreted into culture supernatants (QUANTI-Blue'm, Invivogen), using SpectraMax 190 plate reader (Molecular Devices).

Regarding `Cc1ccc(S(=O)(=O)n2c(N)nc3ccccc32)cc1` [Compound 1], the “Interference with NOD1 association with RIP2, Bid, or SGT-1” value in [1] was “did not interfere”. In addition, the “Plasma Protein Binding (% Bound)” value was 97.74 % Bound in [2] (1 μM), 97.45 % Bound in [2] (10 μM), 95.45 % Bound in [8] (1 μM) and 94.91 % Bound in data set [8] (10 μM). Besides, the “Plasma protein binding (in words)” value in [2] (human) and in [8] (mouse) was “high” in each case. The “Effect on NF-κB activation induced by BAFF” value in data set [3] is given as “not inhibited”. In addition, the Solubility turned out to be 1.7 µg/mL (≈ 5.92 µM) in [4] (aqueous buffer, pH 6.2, aqueous buffer); 2.0 µg/mL (≈ 6.96 µM) in data set [4] (pH 5.0, aqueous buffer); 2.0 µg/mL (≈ 6.96 µM) in [4] (pH 7.4, aqueous buffer). Besides, the “Solubility (in words)” value in [4] (three pH levels) is recorded as “low”. Moreover, the “Activity on MDP induced (NOD2) mediated IL-8 release (in words)” value at NOD2 [5] was “inactivity”. Further, the “Effect on NF-κB-inducible SEAP activity induced by TLR agonists” value in the data set with TLR1, 2, 4, 5, 6 and 8 is reported as “No inhibitory effects”. In addition, the “Effect on IL-1β secretion induced by inflammasome activators” value in the data set with inflammasome is listed as “did not inhibit”. At NOD2 [6], the NOD2 compartmentalization entry is listed as “No changes”. The “Microsomal Stability (% Remaining at 1 hr)” value in data set [7] (Mouse, 1 hr) came out at 0.83 % Remaining. The “Stability in microsomes (in words)” value in [7] (mouse) was “low”.

The Solubility is how much of the substance goes into solution per volume. Low values mean little dissolved substance, high ones much dissolved substance.
